The subject of assay [1] is IFNα-stimulated STAT-dependent luciferase reporter in Kit225 T cells. The assay can be described thus: Kit225 T cell assay, IFNα stimulated STAT-dependent luciferase reporter. It counts as cell-based, human. The procedure, abridged:
(§1)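 Kit225 T cells carrying a stably integrated STAT-luciferase reporter, in RPMI with 10% heat-inactivated FBS, were stimulated with 20 ng/mL IL-23 or 200 U/mL IFNα for 5-6 h. Readout was luminescence from the luciferase reporter.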

Assay [2] relates to IL-23-stimulated STAT-dependent luciferase reporter in Kit225 T cells. The assay can be described thus: Kit225 T cell assay, IL-23 stimulated STAT-dependent luciferase reporter. It counts as cell-based, human. The procedure, abridged: as §1
Setting [3] is: Kit225 T cells, 200 U/mL human recombinant IFNα, 5-6 hours, luciferase, read-out: IFNα (Kit225 T Cell Inhibition Data).
The mark [4] stands for this setting: Kit225 T cells, 20 ng/mL human recombinant IL-23, 5-6 hours, luciferase, read-out: IL23 (Kit225 T Cell Inhibition Data).

Like-named read-outs stand apart in the source and are kept apart here.

Regarding `CNC(=O)c1cnc(Nc2cc(C#N)ccn2)cc1Nc1cccc(F)c1OC` [Example 173], the IC50 in assay [1] (setting [3]) came out at 0.05 µM; in assay [2] (setting [4]), 0.0819 µM.

As for `CNC(=O)c1cnc(Nc2ccc(F)cn2)cc1Nc1cccc(C)c1C(N)=O` [Example 174], the values for the IC50 in assay [1] (setting [3]) and in assay [2] (setting [4]) were 0.56 µM and 1.03 µM, respectively.

As to `CNC(=O)c1cnc(Nc2ccc(F)cn2)cc1Nc1cccc(F)c1C(N)=O` [Example 175], the IC50 in assay [1] (setting [3]) was 0.5 µM; in assay [2] (setting [4]), 0.434 µM.

As for `CNC(=O)c1cnc(Nc2cnccn2)cc1Nc1ccccc1C(N)=O` [Example 178], the values for the IC50 in assay [1] (setting [3]) and in assay [2] (setting [4]) were 1.88 µM and 1.63 µM, respectively.

With `CNC(=O)c1cnc(Nc2cc(C#N)ccn2)cc1Nc1cnccc1OC` [Example 179], the IC50 in assay [1] (setting [3]) worked out at 3.25 µM; in assay [2] (setting [4]), 2.73 µM.

In the case of `CNC(=O)c1cnc(Nc2ccc3ccccc3n2)cc1Nc1ccccc1C(C)(C)O` [Example 180], the IC50 was 2.58 µM in assay [1] (setting [3]) and 5.09 µM in assay [2] (setting [4]).

As for `CNC(=O)c1cnc(Nc2ccccn2)cc1Nc1ccccc1C(C)(C)O` [Example 183], the IC50 amounted to 5.97 µM in assay [1] (setting [3]) and 9.72 µM in assay [2] (setting [4]).

On to `CNC(=O)c1cnc(Nc2ccc(F)cn2)cc1Nc1ccccc1` [Example 184], for which the IC50 is 4.11 µM in assay [1] (Homo sapiens, KIT225, read-out: IFNα (Kit225 T Cell Inhibition Data)) and 7.98 µM in assay [2] (Homo sapiens, KIT225, read-out: IL23 (Kit225 T Cell Inhibition Data)).

`CNC(=O)c1cnc(Nc2ccc(F)cn2)cc1Nc1ccccc1C1CC1` [Example 185]: the IC50 is 2.9 µM in assay [1] (setting [3]) and 2.58 µM in assay [2] (setting [4]).

Take `CNC(=O)c1cnc(Nc2ccc(F)cn2)cc1Nc1ccccc1-c1nnc[nH]1` [Example 186]: the values for the IC50 in assay [1] (setting [3]) and in assay [2] (setting [4]) were 7.85 µM and 7.81 µM, respectively.

In the case of `CNC(=O)c1cnc(Nc2ccc(F)cn2)cc1Nc1ccc(N2CCOCC2)cc1OC` [Example 187], the figures for the IC50 in assay [1] (setting [3]) and in assay [2] (setting [4]) were 2.58 µM and 2.82 µM, respectively.

`CNC(=O)c1cnc(Nc2ccc(F)cn2)cc1Nc1ccccc1OC` [Example 190]: the IC50 came to 0.51 µM in assay [1] (setting [3]) and 0.367 µM in assay [2] (setting [4]).

Consider `CNC(=O)c1cnc(Nc2ccc(F)cn2)cc1Nc1ccc(CCO)cc1` [Example 191], for which the IC50 in assay [1] (setting [3]) turned out to be 3.58 µM; in assay [2] (setting [4]), 3.07 µM.

With `CNC(=O)c1cnc(Nc2ccc(F)cn2)cc1Nc1ccc(OC)cc1OC` [Example 192], the IC50 in assay [1] (setting [3]) is 0.54 µM; in assay [2] (setting [4]), 0.565 µM.

For the compound `CNC(=O)c1cnc(Nc2ccc(F)cn2)cc1Nc1ccc(C)cc1` [Example 193], the figures for the IC50 in assay [1] (setting [3]) and in assay [2] (setting [4]) were 3.2 µM and 3.67 µM, respectively.

For the compound `CNC(=O)c1cnc(Nc2ccc(F)cn2)cc1Nc1ccc(OC)cc1` [Example 195], the IC50 came out at 3.52 µM in assay [1] (setting [3]) and 3.13 µM in assay [2] (setting [4]).

`CNC(=O)c1cnc(Nc2ccc(F)cn2)cc1Nc1ccc(F)cc1` [Example 196]: the IC50 stood at 6.97 µM in assay [1] (setting [3]) and 4.38 µM in assay [2] (setting [4]).

Take `CNC(=O)c1cnc(Nc2ccc(F)cn2)cc1Nc1cccc(C)c1` [Example 197]: the IC50 in assay [1] (setting [3]) turned out to be 5.83 µM; in assay [2] (setting [4]), 11.9 µM.

`CNC(=O)c1cnc(Nc2ccc(F)cn2)cc1Nc1ccc(C2CC2)cc1` [Example 198]: the figures for the IC50 in assay [1] (setting [3]) and in assay [2] (setting [4]) were 5.3 µM and 4.53 µM, respectively.

Regarding `CNC(=O)c1cnc(Nc2ccc(F)cn2)cc1Nc1cc(F)ccc1OC` [Example 199], the IC50 in assay [1] (setting [3]) stood at 0.66 µM; in assay [2] (setting [4]) it was 0.897 µM.

Take `CNC(=O)c1cnc(Nc2ccc(F)cn2)cc1Nc1ccc(C(=O)N2CCCC2)cc1` [Example 200]: the IC50 was determined as 1.3 µM in assay [1] (setting [3]) and 0.904 µM in assay [2] (setting [4]).

As for `CNC(=O)c1cnc(Nc2ccc(F)cn2)cc1Nc1ccc(S(C)(=O)=O)cc1` [Example 201], the IC50 turned out to be 6.97 µM in assay [1] (setting [3]) and 2.67 µM in assay [2] (setting [4]).

As for `CNC(=O)c1cnc(Nc2ccc(F)cn2)cc1Nc1ccc(F)c(F)c1` [Example 204], the IC50 in assay [1] (setting [3]) was found to be 8.13 µM; in assay [2] (setting [4]), 9.32 µM.

Regarding `CNC(=O)c1cnc(Nc2ccc(F)cn2)cc1Nc1ccc(F)cc1SC` [Example 207], the IC50 in assay [1] (setting [3]) was 2.04 µM; in assay [2] (setting [4]) it was 3.3 µM.

For `CNC(=O)c1cnc(Nc2ccc(F)cn2)cc1Nc1ccccc1O` [Example 208], the IC50 is 2.41 µM in assay [1] (setting [3]) and 1.85 µM in assay [2] (setting [4]).

As for `CNC(=O)c1cnc(Nc2ccc(F)cn2)cc1Nc1ccccc1OC(F)(F)F` [Example 209], the IC50 amounted to 1.31 µM in assay [1] (setting [3]) and 1.58 µM in assay [2] (setting [4]).

As to `CNC(=O)c1cnc(Nc2ccc(F)cn2)cc1Nc1ccccc1SC(F)(F)F` [Example 210], the values for the IC50 in assay [1] (setting [3]) and in assay [2] (setting [4]) were 0.86 µM and 1.69 µM, respectively.

On to `CNC(=O)c1cnc(Nc2ccc(F)cn2)cc1Nc1cccc2[nH]ccc12` [Example 212], for which the IC50 turned out to be 2.03 µM in assay [1] (setting [3]) and 4.17 µM in assay [2] (setting [4]).

Take `CCc1ccc(Nc2cc(Nc3ccc(N4CCOCC4)cn3)ncc2C(=O)NC)cc1` [Example 213]: the IC50 in assay [1] (setting [3]) amounted to 1.31 µM; in assay [2] (setting [4]), 1.87 µM.

In the case of `CNC(=O)c1cnc(Nc2ccc(N3CCOCC3)cn2)cc1Nc1ccccc1F` [Example 214], the figures for the IC50 in assay [1] (setting [3]) and in assay [2] (setting [4]) were 2.01 µM and 2.93 µM, respectively.

`CCc1cccc(Nc2cc(Nc3ccc(N4CCOCC4)cn3)ncc2C(=O)NC)c1` [Example 215]: the IC50 was found to be 4.33 µM in assay [1] (setting [3]) and 4.93 µM in assay [2] (setting [4]).

On to `CNC(=O)c1cnc(Nc2ccc(N3CCOCC3)cn2)cc1Nc1ccccc1OC` [Example 216], for which the IC50 is 0.12 µM in assay [1] (setting [3]) and 0.152 µM in assay [2] (setting [4]).

In the case of `CNC(=O)c1cnc(Nc2ccc(N3CCOCC3)cn2)cc1Nc1ccc(F)cc1OC` [Example 218], the figures for the IC50 in assay [1] (setting [3]) and in assay [2] (setting [4]) were 0.26 µM and 0.802 µM, respectively.

Turning to `CNC(=O)c1cnc(Nc2ccc(N3CCOCC3)cn2)cc1Nc1c(F)cccc1OC` [Example 219], the results for the IC50 in assay [1] (setting [3]) and in assay [2] (setting [4]) were 2.81 µM and 5.09 µM, respectively.

`CNC(=O)c1cnc(Nc2ccc(N3CCOCC3)cn2)cc1Nc1ccc(OC)cc1OC` [Example 220]: the IC50 in assay [1] (setting [3]) was found to be 0.21 µM; in assay [2] (setting [4]) it was 0.492 µM.

As to `CNC(=O)c1cnc(Nc2ccc(N3CCOCC3)cn2)cc1Nc1ccc(Br)cc1OC` [Example 221], the results for the IC50 in assay [1] (setting [3]) and in assay [2] (setting [4]) were 0.15 µM and 0.456 µM, respectively.

`CNC(=O)c1cnc(Nc2ccc(N3CCOCC3)cn2)cc1Nc1cc(S(C)(=O)=O)ccc1OC` [Example 222]: the values for the IC50 in assay [1] (setting [3]) and in assay [2] (setting [4]) were 8.39 µM and 8.04 µM, respectively.

As to `CCOc1ccccc1Nc1cc(Nc2ccc(N3CCOCC3)cn2)ncc1C(=O)NC` [Example 223], the IC50 in assay [1] (setting [3]) is 0.19 µM; in assay [2] (setting [4]), 0.386 µM.

As to `CNC(=O)c1cnc(Nc2ccc(N3CCOCC3)cn2)cc1Nc1cccc2c1OCCO2` [Example 225], the IC50 in assay [1] (setting [3]) came to 0.09 µM; in assay [2] (setting [4]) it was 0.157 µM.

As to `CNC(=O)c1cnc(Nc2ccc(N3CCOCC3)cn2)cc1Nc1ccc(F)cc1O` [Example 227], the values for the IC50 in assay [1] (setting [3]) and in assay [2] (setting [4]) were 3.24 µM and 4.6 µM, respectively.

As to `CCOc1ccc(OCC)c(Nc2cc(Nc3ccc(N4CCOCC4)cn3)ncc2C(=O)NC)c1` [Example 229], the IC50 in assay [1] (setting [3]) is 0.26 µM; in assay [2] (setting [4]) it was 0.31 µM.

For the compound `CCOc1c(F)cc(F)cc1Nc1cc(Nc2ccc(N3CCOCC3)cn2)ncc1C(=O)NC` [Example 230], the IC50 in assay [1] (setting [3]) came out at 0.16 µM; in assay [2] (setting [4]) it was 0.224 µM.

Turning to `CNC(=O)c1cnc(Nc2ccc(F)cn2)cc1Nc1ccccc1N` [Example 231], the results for the IC50 in assay [1] (setting [3]) and in assay [2] (setting [4]) were 3.12 µM and 9.18 µM, respectively.

With `CCOc1cc(F)ccc1Nc1cc(Nc2ccc(N3CCOCC3)cn2)ncc1C(=O)NC` [Example 232], the IC50 in assay [1] (setting [3]) amounted to 2.09 µM; in assay [2] (setting [4]) it was 3.04 µM.

These data come from patent US9315494B2, “Alkyl-amide-substituted pyridyl compounds useful as modulators of IL-12, IL-23 and/or IFNα responses” (Bristol-Myers Squibb Company, priority 2012, dated 2016).
